Experimental data from ChEMBL document CHEMBL4732254, “Novel monocyclic amide-linked phenol derivatives without mitochondrial toxicity have potent uric acid-lowering activity” (Bioorg Med Chem Lett, 2021).
Active and inactive are the calls of the source. No cut-off for these calls is given here.

Key:
[1] = biological target: T1, Solute carrier family 22 member 12 (Homo sapiens, UniProt Q96S37); test: Inhibition of URAT1 (unknown origin)-mediated uric acid uptake at 3 uM relative to control
T1 sequence (Q96S37 whole entry): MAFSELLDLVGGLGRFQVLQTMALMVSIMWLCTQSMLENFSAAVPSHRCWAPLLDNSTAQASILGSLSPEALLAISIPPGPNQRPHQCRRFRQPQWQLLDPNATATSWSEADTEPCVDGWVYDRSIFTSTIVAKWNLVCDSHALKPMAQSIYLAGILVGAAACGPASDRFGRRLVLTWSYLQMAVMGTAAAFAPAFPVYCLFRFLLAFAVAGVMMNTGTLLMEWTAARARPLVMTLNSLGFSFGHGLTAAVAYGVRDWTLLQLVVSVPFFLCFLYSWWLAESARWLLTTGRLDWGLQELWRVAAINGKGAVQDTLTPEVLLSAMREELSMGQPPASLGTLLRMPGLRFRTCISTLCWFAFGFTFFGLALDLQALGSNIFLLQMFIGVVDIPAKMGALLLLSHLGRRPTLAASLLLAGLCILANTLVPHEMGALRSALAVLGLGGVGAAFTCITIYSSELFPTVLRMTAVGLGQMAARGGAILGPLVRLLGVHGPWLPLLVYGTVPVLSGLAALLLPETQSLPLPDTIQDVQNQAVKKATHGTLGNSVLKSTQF

[2] = Inhibition of uric acid uptake in human RPTEC; assay type: functional, tissue-based
[3] = Hepatotoxicity assessed as induction of mitochondrial (unknown origin) toxicity by measuring mitochondrial inhibitory activity at 100 uM relative to control; conditions: mitochondria (unknown origin)
[4] = Drug excretion in rat urine at 3 mg/kg, po measured for 4 hrs; assay type: ADME, organism-based; conditions: read-out: Drug excretion
[5] = Cmax in rat at 3 mg/kg, po; assay type: ADME, organism-based; set-up: route oral, dose 3 mg/kg; conditions: in vivo
[6] = biological target: Cytochrome P450 2C9 (Homo sapiens, UniProt P11712); test: Inhibition of CYP2C9 (unknown origin); assay type: ADME
[7] = Hepatotoxicity assessed as induction of mitochondrial (unknown origin) toxicity by measuring mitochondrial inhibitory activity; conditions: mitochondria (unknown origin)
[8] = test system: Sapajus apella; test: Uricosuric activity in Cebus apella assessed as decrease in plasma urate level at 300 mg/kg, po measured for 24 hrs; assay type: functional, organism-based

Chain of Cytochrome P450 2C9 (P11712 whole entry): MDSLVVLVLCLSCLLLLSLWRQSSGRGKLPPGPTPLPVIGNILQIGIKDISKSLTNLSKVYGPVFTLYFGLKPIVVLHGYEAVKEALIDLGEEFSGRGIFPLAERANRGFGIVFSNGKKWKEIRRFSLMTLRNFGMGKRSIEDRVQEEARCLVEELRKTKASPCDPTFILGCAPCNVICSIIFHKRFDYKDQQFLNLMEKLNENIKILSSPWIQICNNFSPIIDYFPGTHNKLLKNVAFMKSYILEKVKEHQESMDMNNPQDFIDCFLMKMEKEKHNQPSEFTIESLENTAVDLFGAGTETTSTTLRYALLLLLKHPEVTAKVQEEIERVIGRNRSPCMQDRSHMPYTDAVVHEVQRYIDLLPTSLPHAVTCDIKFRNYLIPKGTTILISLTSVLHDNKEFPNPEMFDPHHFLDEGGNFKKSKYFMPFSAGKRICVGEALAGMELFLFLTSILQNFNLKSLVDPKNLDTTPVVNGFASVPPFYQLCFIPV

**Q.** Which inhibition at 3 µM [1] does the source give for `CCCc1cc(C(=O)N2CC=CC2)cc(C(F)(F)F)c1O` here?
**A.** 49%

**Q.** What about the IC50 [2] of the same compound?
**A.** 903 µM

**Q.** And the inhibition at 100 µM [3]?
**A.** 47%

**Q.** Which inhibition at 3 µM [1] does the source give for `N#Cc1cc(C(=O)N2CCCC2)cc(C(F)(F)F)c1O` here?
**A.** 66%

**Q.** And the IC50 [2]?
**A.** > 1000 µM

**Q.** And the inhibition at 100 µM [3]?
**A.** 18%

**Q.** With `CC(C)(C)c1cc(C(=O)N2CCC2)cc(C#N)c1O` as the compound, how does the inhibition at 3 µM [1] read?
**A.** 71%

**Q.** What about the IC50 [2] of the same compound?
**A.** > 1000 µM

**Q.** And the inhibition at 100 µM [3]?
**A.** 41%

**Q.** For `CC1=CCN(C(=O)c2cc(C#N)c(O)c(C(F)(F)F)c2)C1`, which dose excreted at 4 h [4] is on record?
**A.** 10%

**Q.** What about the inhibition at 3 µM [1] of the same compound?
**A.** 88%

**Q.** And the IC50 [2]?
**A.** 137 µM

**Q.** What about the Cmax [5] of the same compound?
**A.** 2220 ng/mL

**Q.** What about the IC50 [6] of the same compound?
**A.** 94 µM

**Q.** And the inhibition at 100 µM [3]?
**A.** 9%

**Q.** With `N#Cc1cc(C(=O)N2CC=CC2)cc(Cl)c1O` as the compound, how does the inhibition at 3 µM [1] read?
**A.** 66%

**Q.** And the IC50 [2]?
**A.** > 1000 µM

**Q.** And the inhibition at 100 µM [3]?
**A.** 5%

**Q.** With `O=C(c1cc(Cl)c(O)c(Cl)c1)N1CS(=O)(=O)c2ccccc21` [DOTINURAD] as the compound, how does the IC50 [6] read?
**A.** 5.7 µM

**Q.** Which results are given for `O=C(c1cc(Br)c(O)c(Br)c1)N1CC=CC1`?
**A.** IC50 [7]: > 100 µM; inhibition at 100 µM [3]: 22%

**Q.** Which inhibition at 3 µM [1] does the source give for `CCc1cc(C(=O)n2cccc2)cc(C#N)c1O` here?
**A.** 83%

**Q.** What about the IC50 [7] of the same compound?
**A.** 6.7 µM

**Q.** And the IC50 [2]?
**A.** > 1000 µM

**Q.** For `O=C(C1=CCCC1)c1cc(Br)c(O)c(Br)c1`, which IC50 [7] is on record?
**A.** 6.6 µM

**Q.** With `CSc1cc(C(=O)N2CC=CC2)cc(C#N)c1O` as the compound, how does the inhibition at 3 µM [1] read?
**A.** 58%

**Q.** And the IC50 [2]?
**A.** > 1000 µM

**Q.** What about the inhibition at 100 µM [3] of the same compound?
**A.** 6%

**Q.** For `O=C(C1=CCCC1)c1cc(Cl)c(O)c(Cl)c1`, which IC50 [7] is on record?
**A.** 10 µM

**Q.** What does the source list for `N#Cc1cc(C(=O)N2CC=CC2)cc(Br)c1O`?
**A.** inhibition at 3 µM [1]: 69%; IC50 [2]: 747 µM; inhibition at 100 µM [3]: 0%

**Q.** Which inhibition at 3 µM [1] does the source give for `CCc1cc(C(=O)N2CC=CC2)cc(C#N)c1O` here?
**A.** 54%

**Q.** What about the IC50 [7] of the same compound?
**A.** > 100 µM

**Q.** And the IC50 [2]?
**A.** > 1000 µM

**Q.** What about the inhibition at 100 µM [3] of the same compound?
**A.** 17%

**Q.** What does the source list for `N#Cc1cc(C(=O)N2CCSC2)cc(C#N)c1O`?
**A.** inhibition at 3 µM [1]: 62%; IC50 [2]: 614 µM; inhibition at 100 µM [3]: 23%

**Q.** With `N#Cc1cc(C(=O)N2CC=CC2)cc(C(F)(F)F)c1O` as the compound, how does the dose excreted at 4 h [4] read?
**A.** 23%

**Q.** And the inhibition at 3 µM [1]?
**A.** 83%

**Q.** What about the IC50 [2] of the same compound?
**A.** 818 µM

**Q.** And the Activity [8]?
**A.** Active

**Q.** What about the Cmax [5] of the same compound?
**A.** 2610 ng/mL

**Q.** And the IC50 [6]?
**A.** 52 µM

**Q.** And the inhibition at 100 µM [3]?
**A.** -1%

**Q.** With `N#Cc1cc(C(=O)N2CCSC2)cc(C(F)(F)F)c1O` as the compound, how does the dose excreted at 4 h [4] read?
**A.** 9%

**Q.** What about the inhibition at 3 µM [1] of the same compound?
**A.** 84%

**Q.** What about the IC50 [2] of the same compound?
**A.** 202 µM

**Q.** What about the Cmax [5] of the same compound?
**A.** 3700 ng/mL

**Q.** And the IC50 [6]?
**A.** > 100 µM

**Q.** And the inhibition at 100 µM [3]?
**A.** 29%

**Q.** For `N#Cc1cc(C(=O)N2CC=CC2)cc(C2CC2)c1O`, which inhibition at 3 µM [1] is on record?
**A.** 69%

**Q.** What about the IC50 [2] of the same compound?
**A.** > 1000 µM

**Q.** And the inhibition at 100 µM [3]?
**A.** -7%

**Q.** What does the source list for `CCCc1cc(C(=O)N2CC=CC2)cc(C#N)c1O`?
**A.** inhibition at 3 µM [1]: 70%; IC50 [2]: > 1000 µM; inhibition at 100 µM [3]: 7%

**Q.** With `CC(C)(C)c1cc(C(=O)N2CC=CC2)cc(C#N)c1O` as the compound, how does the inhibition at 3 µM [1] read?
**A.** 92%

**Q.** What about the IC50 [7] of the same compound?
**A.** 64 µM

**Q.** And the IC50 [2]?
**A.** 311 µM

**Q.** And the inhibition at 100 µM [3]?
**A.** 60%

**Q.** For `CC(C)(C)c1cc(C(=O)N2CCCC2)cc(C#N)c1O`, which inhibition at 3 µM [1] is on record?
**A.** 84%

**Q.** What about the IC50 [7] of the same compound?
**A.** > 100 µM

**Q.** What about the IC50 [2] of the same compound?
**A.** > 1000 µM

**Q.** And the inhibition at 100 µM [3]?
**A.** 22%

**Q.** For `CC(C)(C)c1cc(C(=O)N2CCSC2)cc(C#N)c1O`, which inhibition at 3 µM [1] is on record?
**A.** 92%

**Q.** What about the IC50 [7] of the same compound?
**A.** 27 µM

**Q.** And the IC50 [2]?
**A.** 257 µM

**Q.** And the inhibition at 100 µM [3]?
**A.** 77%

**Q.** What does the source list for `N#Cc1cc(C(=O)N2CC=CC2)cc(I)c1O`?
**A.** inhibition at 3 µM [1]: 79%; IC50 [2]: > 1000 µM; inhibition at 100 µM [3]: 8%

**Q.** For `Cc1cc(C(=O)N2CC=CC2)cc(C#N)c1O`, which inhibition at 3 µM [1] is on record?
**A.** 25%

**Q.** And the IC50 [2]?
**A.** > 1000 µM

**Q.** And the inhibition at 100 µM [3]?
**A.** -10%

**Q.** Which results are given for `CCc1cc(C(=O)N2CCSC2)cc(C#N)c1O`?
**A.** dose excreted at 4 h [4]: 9.5%; inhibition at 3 µM [1]: 67%; IC50 [2]: 124 µM; inhibition at 100 µM [3]: 25%

**Q.** Which inhibition at 3 µM [1] does the source give for `N#Cc1cc(C(=O)N2CCSC2)cc(Br)c1O` here?
**A.** 72%

**Q.** And the IC50 [2]?
**A.** 401 µM

**Q.** What about the inhibition at 100 µM [3] of the same compound?
**A.** 23%

**Q.** Which inhibition at 3 µM [1] does the source give for `N#Cc1cc(C(=O)N2CCC2)cc(C(F)(F)F)c1O` here?
**A.** 75%

**Q.** And the IC50 [2]?
**A.** > 1000 µM

**Q.** What about the inhibition at 100 µM [3] of the same compound?
**A.** 17%

**Q.** Which inhibition at 3 µM [1] does the source give for `N#Cc1cc(C(=O)N2CCS(=O)(=O)C2)cc(C(F)(F)F)c1O` here?
**A.** 55%

**Q.** And the IC50 [2]?
**A.** 272 µM

**Q.** What about the inhibition at 100 µM [3] of the same compound?
**A.** -3%

**Q.** What does the source list for `CCc1oc2ccccc2c1C(=O)c1cc(Br)c(O)c(Br)c1` [BENZBROMARONE]?
**A.** inhibition at 3 µM [1]: 91%; IC50 [7]: 3.1 µM; IC50 [2]: 6.8 µM
